Assay results reported in patent US10160755B2 (Plexxikon Inc., priority 2015, dated 2018).

How the values were obtained:
c-Kit = c-Kit (Homo sapiens, UniProt P10721); assay: c-Kit biochemical assay (per US 2007/0032519)
Protocol: The following Table 2 provides data indicating FLT3 ITD, FLT3 D835Y, and KIT biochemical activity, and BaF3 FLT3 ITD/F69L cellular inhibitory activity for exemplary compounds described in this disclosure. In the table below, activity is provided as follows: +++=0.0001<IC50<1 μM; ++=1 μM<IC50<10 μM, +=10 μM<IC50<200 μM. Assays for the biochemical activity of c-Kit and FMS were conducted according to those assays described in US Patent Application Publication number US 2007/0032519, the disclosure of which is hereby incorporated by reference in its entirety.

FLT3-ITD = biological target: T1, FLT3-ITD (Homo sapiens, UniProt P36888); assay: FLT3-ITD biochemical kinase assay (AlphaScreen)
T1 construct: FLT3-ITD; Invitrogen #PV6190
T1 sequence (P36888 1-993): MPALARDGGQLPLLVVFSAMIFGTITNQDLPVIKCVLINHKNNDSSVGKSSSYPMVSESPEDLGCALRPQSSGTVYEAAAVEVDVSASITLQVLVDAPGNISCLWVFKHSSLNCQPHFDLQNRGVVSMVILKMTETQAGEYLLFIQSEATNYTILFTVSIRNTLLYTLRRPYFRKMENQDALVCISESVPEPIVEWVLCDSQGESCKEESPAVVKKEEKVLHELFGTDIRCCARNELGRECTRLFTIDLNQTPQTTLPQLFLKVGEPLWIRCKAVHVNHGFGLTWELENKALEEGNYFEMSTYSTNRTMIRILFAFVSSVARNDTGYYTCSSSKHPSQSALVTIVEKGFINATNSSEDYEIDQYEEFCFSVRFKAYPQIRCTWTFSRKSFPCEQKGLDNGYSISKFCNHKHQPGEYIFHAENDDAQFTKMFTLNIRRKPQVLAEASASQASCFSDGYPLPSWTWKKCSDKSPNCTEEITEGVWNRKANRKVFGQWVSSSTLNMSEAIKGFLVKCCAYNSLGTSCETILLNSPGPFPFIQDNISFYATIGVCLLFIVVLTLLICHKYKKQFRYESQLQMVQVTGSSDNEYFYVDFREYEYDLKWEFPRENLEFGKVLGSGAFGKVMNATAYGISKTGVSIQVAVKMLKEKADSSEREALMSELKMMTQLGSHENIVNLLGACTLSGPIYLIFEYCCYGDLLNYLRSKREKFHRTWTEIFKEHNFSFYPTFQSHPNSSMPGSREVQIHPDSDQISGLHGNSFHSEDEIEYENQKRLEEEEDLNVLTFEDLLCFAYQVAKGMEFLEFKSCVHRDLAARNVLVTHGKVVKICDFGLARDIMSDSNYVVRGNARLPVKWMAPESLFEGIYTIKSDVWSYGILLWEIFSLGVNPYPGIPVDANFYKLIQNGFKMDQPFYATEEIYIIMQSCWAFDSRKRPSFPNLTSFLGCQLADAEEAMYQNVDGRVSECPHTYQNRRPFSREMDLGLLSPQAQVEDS
Summary of the method: (§1)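 Recombinant FLT3 mutant kinases phosphorylate biotin-poly(Glu4-Tyr) peptide (30 nM) at 10 μM ATP for D835Y or 100 μM for ITD. Phosphorylation detected by AlphaScreen: streptavidin donor beads (20 min) then anti-phosphotyrosine PY20 acceptor beads (60 min, RT), signal at 580 nm; inhibition lowers signal.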

FLT3-D835Y = biological target: T2, FLT3-D835Y (Homo sapiens, UniProt P36888, D835Y); assay: FLT3-D835Y biochemical kinase assay (AlphaScreen)
T2 construct: purchased Invitrogen PV3967
T2 sequence (P36888 27-993 D835Y): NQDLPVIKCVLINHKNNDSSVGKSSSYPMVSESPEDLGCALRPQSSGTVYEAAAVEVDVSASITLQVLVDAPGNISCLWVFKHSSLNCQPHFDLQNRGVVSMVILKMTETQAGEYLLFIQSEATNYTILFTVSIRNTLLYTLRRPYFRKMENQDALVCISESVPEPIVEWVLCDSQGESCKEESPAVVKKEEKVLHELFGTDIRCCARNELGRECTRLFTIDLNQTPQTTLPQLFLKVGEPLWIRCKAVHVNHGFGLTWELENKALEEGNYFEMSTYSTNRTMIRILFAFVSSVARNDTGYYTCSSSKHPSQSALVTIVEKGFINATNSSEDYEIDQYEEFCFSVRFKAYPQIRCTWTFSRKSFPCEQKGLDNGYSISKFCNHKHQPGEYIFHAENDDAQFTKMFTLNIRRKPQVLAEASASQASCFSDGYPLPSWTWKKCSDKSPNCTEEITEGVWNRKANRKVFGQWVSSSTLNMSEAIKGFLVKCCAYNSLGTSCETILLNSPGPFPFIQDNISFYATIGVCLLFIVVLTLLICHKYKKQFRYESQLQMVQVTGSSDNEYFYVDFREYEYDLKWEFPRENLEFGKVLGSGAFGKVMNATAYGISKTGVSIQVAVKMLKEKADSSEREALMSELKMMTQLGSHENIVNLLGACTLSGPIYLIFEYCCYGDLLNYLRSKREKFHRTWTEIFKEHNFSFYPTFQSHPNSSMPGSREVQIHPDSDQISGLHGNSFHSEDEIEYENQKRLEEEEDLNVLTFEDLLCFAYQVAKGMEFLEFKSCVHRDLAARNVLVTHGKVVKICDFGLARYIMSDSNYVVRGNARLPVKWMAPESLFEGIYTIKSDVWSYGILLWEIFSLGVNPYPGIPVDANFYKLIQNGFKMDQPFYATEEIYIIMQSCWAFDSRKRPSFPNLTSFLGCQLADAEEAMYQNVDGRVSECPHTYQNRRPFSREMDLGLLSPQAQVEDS
Summary of the method: as §1

c-Kit, sequence (P10721 26-976): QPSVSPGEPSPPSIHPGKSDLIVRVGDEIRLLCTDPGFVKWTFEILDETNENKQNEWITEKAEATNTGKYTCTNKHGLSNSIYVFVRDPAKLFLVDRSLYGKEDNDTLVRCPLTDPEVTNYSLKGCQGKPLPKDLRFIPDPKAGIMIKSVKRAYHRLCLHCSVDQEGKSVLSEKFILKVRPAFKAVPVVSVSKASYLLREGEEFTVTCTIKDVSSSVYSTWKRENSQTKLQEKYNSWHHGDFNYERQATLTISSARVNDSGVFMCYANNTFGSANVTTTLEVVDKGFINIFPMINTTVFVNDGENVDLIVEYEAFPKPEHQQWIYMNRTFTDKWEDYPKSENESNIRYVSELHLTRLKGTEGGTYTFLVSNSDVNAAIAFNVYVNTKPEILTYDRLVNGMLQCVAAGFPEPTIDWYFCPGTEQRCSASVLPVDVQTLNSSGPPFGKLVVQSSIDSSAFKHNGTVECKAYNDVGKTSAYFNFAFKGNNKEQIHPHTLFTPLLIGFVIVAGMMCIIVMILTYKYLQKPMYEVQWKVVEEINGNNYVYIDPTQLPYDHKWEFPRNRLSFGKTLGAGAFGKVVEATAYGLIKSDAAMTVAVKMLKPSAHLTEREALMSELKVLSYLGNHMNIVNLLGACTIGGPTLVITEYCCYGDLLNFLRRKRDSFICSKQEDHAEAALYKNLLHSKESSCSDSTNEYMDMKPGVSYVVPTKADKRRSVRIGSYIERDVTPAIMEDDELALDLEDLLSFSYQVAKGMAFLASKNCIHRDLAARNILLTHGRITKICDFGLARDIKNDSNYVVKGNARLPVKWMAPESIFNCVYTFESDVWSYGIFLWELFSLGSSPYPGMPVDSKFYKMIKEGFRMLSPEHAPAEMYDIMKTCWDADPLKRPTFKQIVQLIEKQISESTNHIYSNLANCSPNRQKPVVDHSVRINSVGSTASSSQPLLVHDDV

IC50 (c-Kit) [µM]	IC50 (FLT3-ITD) [µM]	IC50 (FLT3-D835Y) [µM]	Compound
0.0001 to 1	0.0001 to 1	0.0001 to 1	Cc1nn(C(C)C)cc1-c1cnc2[nH]cc(-c3ccc4ncn(C(C)(C)C)c4c3)c2n1 [P-381, 7-(3-tert-butylbenzimidazol-5-yl)-2-(1-isopropyl-3-methyl-pyrazol-4-yl)-5H-pyrrolo[2,3-b]pyrazine]
1 to 10	0.0001 to 1	1 to 10	N#Cc1cnc2[nH]cc(-c3ccc4nc[nH]c4c3)c2c1 [P-023, 3-(3H-benzimidazol-5-yl)-1H-pyrrolo[2,3-b]pyridine-5-carbonitrile]
1 to 10	0.0001 to 1	0.0001 to 1	CS(=O)(=O)Nc1cccc(-c2cnc3[nH]cc(-c4ccc5ncn(C6CCCC6)c5c4)c3n2)c1 [P-070, N-[3-[7-(3-cyclopentylbenzimidazol-5-yl)-5H-pyrrolo[2,3-b]pyrazin-2-yl]phenyl]methanesulfonamide]
10 to 200	0.0001 to 1	0.0001 to 1	O=C(C1CC1)N1CC=C(c2cnc3[nH]cc(-c4ccc5ncn(C6CCCC6)c5c4)c3n2)C1 [P-126, [3-[7-(3-cyclopentylbenzimidazol-5-yl)-5H-pyrrolo[2,3-b]pyrazin-2-yl]-2,5-dihydropyrrol-1-yl]-cyclopropyl-methanone]
10 to 200	0.0001 to 1	0.0001 to 1	CS(=O)(=O)Nc1cccc(-c2cnc3[nH]cc(-c4ccc5c(c4)OCO5)c3n2)c1 [P-058, N-[3-[7-(1,3-benzodioxol-5-yl)-5H-pyrrolo[2,3-b]pyrazin-2-yl]phenyl]methanesulfonamide]
10 to 200	0.0001 to 1	0.0001 to 1	Cn1cnc2ccc(-c3c[nH]c4ncc(-c5cccc(C(=O)NC6CC6)c5)cc34)cc21 [P-090, N-cyclopropyl-3-[3-(3-methylbenzimidazol-5-yl)-1H-pyrrolo[2,3-b]pyridin-5-yl]benzamide]
1 to 10	0.0001 to 1	0.0001 to 1	COc1cnc2[nH]cc(-c3ccc4ncn(CC(F)(F)F)c4c3)c2c1 [P-047, 5-methoxy-3-[3-(2,2,2-trifluoroethyl)benzimidazol-5-yl]-1H-pyrrolo[2,3-b]pyridine]
1 to 10	0.0001 to 1	0.0001 to 1	CC(C)(C)n1cnc2ccc(-c3c[nH]c4ncc(-c5cnc(C(N)=O)c(Cl)c5)nc34)cc21 [P-364, 5-[7-(3-tert-butylbenzimidazol-5-yl)-5H-pyrrolo[2,3-b]pyrazin-2-yl]-3-chloro-pyridine-2-carboxamide]
1 to 10	0.0001 to 1	0.0001 to 1	COc1cnc2[nH]cc(-c3cnc4[nH]cnc4c3)c2c1 [P-052, 6-(5-methoxy-1H-pyrrolo[2,3-b]pyridin-3-yl)-3H-imidazo[4,5-b]pyridine]
10 to 200	0.0001 to 1	1 to 10	O=S(=O)(C1CC1)N1CCC=C(c2cnc3[nH]cc(-c4ccc5[nH]cnc5c4)c3c2)C1 [P-032, 3-(1H-benzimidazol-5-yl)-5-(1-cyclopropylsulfonyl-3,6-dihydro-2H-pyridin-5-yl)-1H-pyrrolo[2,3-b]pyridine]
10 to 200	0.0001 to 1	0.0001 to 1	Cn1cnc2ccc(-c3c[nH]c4ncc(-c5cccc(NS(C)(=O)=O)c5)nc34)cc21 [P-038, N-[3-[7-(3-methylbenzimidazol-5-yl)-5H-pyrrolo[2,3-b]pyrazin-2-yl]phenyl]methanesulfonamide]
10 to 200	0.0001 to 1	0.0001 to 1	Cn1cnc2ccc(-c3c[nH]c4ncc(-c5cccc(OC(F)(F)F)c5)cc34)cc21 [P-131, 1-methyl-6-[5-[3-(trifluoromethoxy)phenyl]-1H-pyrrolo[2,3-b]pyridin-3-yl]benzimidazole]
0.0001 to 1	1 to 10	1 to 10	c1cnc2[nH]cc(-c3ccc4[nH]ncc4c3)c2c1 [P-001, 3-(1H-indazol-5-yl)-1H-pyrrolo[2,3-b]pyridine]
1 to 10	0.0001 to 1	0.0001 to 1	COc1ccc(-c2cnc3[nH]cc(-c4ccc5ncn(C)c5c4)c3c2)cn1 [P-040, 5-(6-methoxy-3-pyridyl)-3-(3-methylbenzimidazol-5-yl)-1H-pyrrolo[2,3-b]pyridine]
10 to 200	0.0001 to 1	0.0001 to 1	COc1cc(-c2cnc3[nH]cc(-c4ccc5ncn(CC(F)(F)F)c5c4)c3n2)ccn1 [P-098, 2-(2-methoxy-4-pyridyl)-7-[3-(2,2,2-trifluoroethyl)benzimidazol-5-yl]-5H-pyrrolo[2,3-b]pyrazine]
1 to 10	0.0001 to 1	0.0001 to 1	Cn1cnc2ccc(-c3c[nH]c4ncc(-c5cccc(N6CCCS6(=O)=O)c5)cc34)cc21 [P-093, 2-[3-[3-(3-methylbenzimidazol-5-yl)-1H-pyrrolo[2,3-b]pyridin-5-yl]phenyl]-1,2-thiazolidine 1,1-dioxide]
10 to 200	0.0001 to 1	0.0001 to 1	Cn1cnc2ccc(-c3c[nH]c4ncc(C5=CCN(C(=O)C6CC6)C5)cc34)cc21 [P-130, cyclopropyl-[3-[3-(3-methylbenzimidazol-5-yl)-1H-pyrrolo[2,3-b]pyridin-5-yl]-2,5-dihydropyrrol-1-yl]methanone]
10 to 200	0.0001 to 1	0.0001 to 1	CS(=O)(=O)Nc1cccc(-c2cnc3[nH]cc(-c4ccc5ncn(CC(F)(F)F)c5c4)c3n2)c1 [P-069, N-[3-[7-[3-(2,2,2-trifluoroethyl)benzimidazol-5-yl]-5H-pyrrolo[2,3-b]pyrazin-2-yl]phenyl]methanesulfonamide]
1 to 10	0.0001 to 1	0.0001 to 1	CC(C)(O)C#Cc1cnc2[nH]cc(-c3ccc4ncn(C(C)(C)C)c4c3)c2n1 [P-377, 4-[7-(3-tert-butylbenzimidazol-5-yl)-5H-pyrrolo[2,3-b]pyrazin-2-yl]-2-methyl-but-3-yn-2-ol]
1 to 10	0.0001 to 1	0.0001 to 1	Cn1cnc2ccc(-c3c[nH]c4ncc(C5=CCN(C(=O)C6CC6)C5)nc34)cc21 [P-082, cyclopropyl-[3-[7-(3-methylbenzimidazol-5-yl)-5H-pyrrolo[2,3-b]pyrazin-2-yl]-2,5-dihydropyrrol-1-yl]methanone]
10 to 200	0.0001 to 1	0.0001 to 1	COc1cnc2[nH]cc(-c3ccc4[nH]nnc4c3)c2c1 [P-014, 5-(5-methoxy-1H-pyrrolo[2,3-b]pyridin-3-yl)-1H-benzotriazole]
